Reference: patent US11753445B2, “Therapeutic peptides” (COHBAR, INC., priority 2016, dated 2023)
Marks after values point to notes of the source that are not given here.

Tests used:
[1] = test system: Diet Induced Obese (DIO) mice; assay: Serum triglycerides and enzyme markers of liver damage in DIO mice, 21 days (Example 9); type: in vivo, Male C57BL/6 mice; conditions: male DIO mice; for reduction in serum ALT compared to liraglutide or vehicle alone / reduction in serum AST compared to liraglutide or vehicle alone / reduction in serum triglycerides compared to liraglutide or vehicle alone: 21 days twice daily 15 mg/kg/dose; for ALT (U/L), mean concentration in serum / AST (U/L), mean concentration in serum / Triglycerides (mg/dL), mean concentration in serum: 21 days twice daily IP 15 mg/kg/dose, serum 2 hours after first dose on Day 21
Procedure: Male C57BL/6 mice were maintained on a high fat diet for 12 to 22 weeks to develop diet induced obesity. Animals were randomized to treatment groups based on blood glucose levels and body weight. The peptides (SEQ ID No: 208, and SEQ ID NO: 210) were each administered to a group of male DIG mice twice daily by appropriate routes at a dose of 15 mg/kg/dose for 21 days (N=8 to 12 animals per treatment group). […] Serum samples were obtained at termination 2 hours after the first dose on Day 21. Samples were analyzed for standard clinical chemistry parameters by methods well known in the art.

[2] = test system: STAM Mouse Model of Non-alcoholic Steatohepatitis (NASH); assay: NAFLD activity score in STAM mouse model of NASH (Example 18); type: in vivo, C57/BL6 mice; conditions: male STAM mice, N = 8, Mean (SD)
Procedure: In the STAM® model of NASH, C57/BL6 mice were injected with a single subcutaneous dose of 200 μg […], two days after birth to destroy pancreatic j-cells. At the age of 4 weeks, animals were put on a high fat diet (57% kcal from fat) and maintained on the same diet throughout the study. […] Beginning at 6 weeks of age, groups of STAM animals (8 animals per group) were treated with the peptides of the present invention administered twice daily by intraperitoneal injection, until study termination. A control group of STAM animals (n=8) received daily doses of telmisartan control compound (10 mg/kg). An additional group of normal mice (n=8) received no treatment. After 21 days of dosing, at 9 weeks of age, metabolic parameters were determined and animals were sacrificed. Liver samples were obtained and fixed, embedded in paraffin, stained with hematoxylin and eosin, and examined by light microscopy. The extent of steatosis and the non-alcoholic fatty liver disease (NAFLD) activity score (NAS) were determined histopathologically according to methods known in the art.

[3] = test system: STAM Mouse Model of Non-alcoholic Steatohepatitis (NASH); assay: Liver triglyceride and plasma ALT levels in STAM mouse model of NASH (Example 19); type: in vivo, C57/BL6 mice; conditions: male STAM mice, N = 8, Mean (SD)
Procedure: In the STAM® model of NASH, C57/BL6 mice were injected with a single subcutaneous dose of 200 μg […], two days after birth to destroy pancreatic j-cells. At the age of 4 weeks, animals were put on a high fat diet (57% kcal from fat) and maintained on the same diet throughout the study. […] […] A control group of STAM animals (n=8) received daily doses of telmisartan control compound (10 mg/kg). An additional group of normal mice (n=8) received no treatment. After 21 days of dosing, at 9 weeks of age, metabolic parameters were determined and animals were sacrificed. Liver triglyceride levels were determined by homogenization in chloroform-methanol and incubation overnight at room temperature. After washing with chloroform-methanol-water, the extracts were evaporated to dryness and dissolved in isopropanol. Liver triglyceride content was then measured by Triglyceride E-test (Wako, Japan). Plasma ALT levels were determined by using Fuji Dri-Chem 7000 (Fujifilm, Japan).

[4] = test system: Diet Induced Obese (DIO) mice; assay: Body weight and fat mass in Diet Induced Obese mice, 21-day study (Example 7); type: in vivo, Male C57BL/6 mice; conditions: male DIO mice; 21 days twice daily IP 15 mg/kg/dose; Mean (SD)
Procedure: Male C57BL/6 mice were maintained on a high fat diet for 12 to 22 weeks to develop diet induced obesity. Animals were randomized to treatment groups based on blood glucose levels and body weight. The peptides (SEQ ID No: 208 and SEQ ID NO: 210) were each administered to a group of male DIO mice twice daily by appropriate routes at a dose of 15 mg/kg/dose for 21 days (N=8 to 12 animals per treatment group). […] Metabolic parameters including body weight, blood glucose levels and food intake were monitored. Body mass distribution (fat vs lean) was determined where appropriate by quantitative whole body NMR prior to dosing and at the end of dosing.

[5] = 21 days IP BID 15 mg/kg/dose beginning at 6 weeks of age

Compound: H-MRWQEMNYIFYPR-OH [SEQ ID NO: 208]
- reduction in serum ALT compared to liraglutide or vehicle alone [1]: greater reduction
- reduction in serum AST compared to liraglutide or vehicle alone [1]: greater reduction
- reduction in serum triglycerides compared to liraglutide or vehicle alone [1]: greater reduction
- ALT (U/L), mean concentration in serum [1]: 40.4 U/L
- AST (U/L), mean concentration in serum [1]: 70.0 U/L
- Triglycerides (mg/dL), mean concentration in serum [1]: 76.0 mg/dL
- NAFLD Activity Score (NAS) [2, 5]: 3.7 (0.5)*
- Liver Triglyceride Levels (mg/g liver) [3, 5]: 35.3 (15.1)* mg/g liver
- Plasma ALT (U/L) [3, 5]: 43 (16)* U/L
- Decrease from Baseline in Body Weight (%) [4]: −17.2 (3.0) %
- Decrease from Baseline in Fat Mass (g) [4]: −6.4 (0.5) g

Compound: H-RWQEMNYIFYPR-OH [SEQ ID NO: 210]
- reduction in serum ALT compared to liraglutide or vehicle alone [1]: greater reduction
- reduction in serum AST compared to liraglutide or vehicle alone [1]: greater reduction
- reduction in serum triglycerides compared to liraglutide or vehicle alone [1]: greater reduction
- ALT (U/L), mean concentration in serum [1]: 45.0 U/L
- AST (U/L), mean concentration in serum [1]: 125 U/L
- Triglycerides (mg/dL), mean concentration in serum [1]: 93.0 mg/dL
- NAFLD Activity Score (NAS) [2, 5]: 3.3 (1.1)*
- Liver Triglyceride Levels (mg/g liver) [3, 5]: 43.6 (9.3)* mg/g liver
- Plasma ALT (U/L) [3, 5]: 37 (13)* U/L
- Decrease from Baseline in Body Weight (%) [4]: −14.1 (4.8) %

Compound: CCCc1nc2c(C)cc(-c3nc4ccccc4n3C)cc2n1Cc1ccc(-c2ccccc2C(=O)O)cc1 [Telmisartan, telmisartan, reference compound]
- NAFLD Activity Score (NAS) ([2]; 21 days PO QD 10 mg/kg/dose beginning at 6 weeks of age): 2.6 (0.5)*
- Liver Triglyceride Levels (mg/g liver) ([3]; 21 days PO BID 10 mg/kg): 18.8 (5.8)* mg/g liver
- Plasma ALT (U/L) ([3]; 21 days PO BID 10 mg/kg): 39 (6)* U/L
